Measurements: the supplement of paper PMC10307832

Assays:
Test in all cases: relative viability (nuclei count vs DMSO), 5 days (fraction); higher = more cells survive
Crenolanib + Tozasertib = compound: CC1(COc2ccc3c(c2)ncn3-c2ccc3cccc(N4CCC(N)CC4)c3n2)COC1 [Crenolanib] + Cc1cc(Nc2cc(N3CCN(C)CC3)nc(Sc3ccc(NC(=O)C4CC4)cc3)n2)n[nH]1 [Tozasertib] (partner 0.1 µM)
Summary of the method: (§1)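 One day after seeding in 1536-well plates, lung cancer cell lines were dosed by pin tool. Dosing was either single-drug or a fixed anchor-drug dose plus five library-drug doses (not always all listed) in √10 steps. After 5 days, nuclei were stained in one fix-and-stain step and counted on 4× images, and relative viability is the nuclei count of treated wells over that of vehicle wells, given as the median of duplicate plates.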

Crenolanib + Phenformin = compound: CC1(COc2ccc3c(c2)ncn3-c2ccc3cccc(N4CCC(N)CC4)c3n2)COC1 [Crenolanib] + N=C(N)NC(=N)NCCc1ccccc1 [Phenformin] (partner 250 µM)
Summary of the method: as §1

Tivantinib + Bortezomib = compound: O=C1NC(=O)[C@@H](c2cn3c4c(cccc24)CCC3)[C@@H]1c1c[nH]c2ccccc12 [Tivantinib] + CC(C)C[C@H](NC(=O)[C@H](Cc1ccccc1)NC(=O)c1cnccn1)B(O)O [Bortezomib] (partner 0.002 µM)
Summary of the method: as §1

Tivantinib + Lapatinib = compound: O=C1NC(=O)[C@@H](c2cn3c4c(cccc24)CCC3)[C@@H]1c1c[nH]c2ccccc12 [Tivantinib] + CS(=O)(=O)CCNCc1ccc(-c2ccc3ncnc(Nc4ccc(OCc5cccc(F)c5)c(Cl)c4)c3c2)o1 [Lapatinib] (partner 2 µM)
Summary of the method: as §1

Cell Line | relative viability (Crenolanib + Tozasertib; first compound 0.01 µM) | relative viability (Crenolanib + Tozasertib; first compound 0.03162 µM) | relative viability (Crenolanib + Tozasertib; first compound 0.1 µM) | relative viability (Crenolanib + Tozasertib; first compound 0.3162 µM) | relative viability (Crenolanib + Tozasertib; first compound 1 µM) | relative viability (Crenolanib + Phenformin; first compound 0.01 µM) | relative viability (Crenolanib + Phenformin; first compound 0.03162 µM) | relative viability (Crenolanib + Phenformin; first compound 0.1 µM) | relative viability (Crenolanib + Phenformin; first compound 0.3162 µM) | relative viability (Crenolanib + Phenformin; first compound 1 µM) | relative viability (Tivantinib + Bortezomib; first compound 0.01 µM) | relative viability (Tivantinib + Bortezomib; first compound 0.03162 µM) | relative viability (Tivantinib + Bortezomib; first compound 0.1 µM) | relative viability (Tivantinib + Bortezomib; first compound 0.3162 µM) | relative viability (Tivantinib + Lapatinib; first compound 0.01 µM) | relative viability (Tivantinib + Lapatinib; first compound 0.03162 µM) | relative viability (Tivantinib + Lapatinib; first compound 0.1 µM) | relative viability (Tivantinib + Lapatinib; first compound 0.3162 µM)
NCI-H3122 | 0.406 | 0.399 | 0.373 | 0.334 | 0.452 | 0.383 | 0.344 | 0.368 | 0.313 | 0.318 | 1.05 | 1.03 | 1.04 | 0.995 | 1.08 | 0.94 | 0.973 | 1.01
PC-3 [JPC-3] | 0.889 | 0.856 | 0.81 | 0.902 | 0.87 | 0.487 | 0.494 | 0.46 | 0.474 | 0.458 | 0.839 | 0.899 | 0.863 | 0.667 | 0.433 | 0.546 | 0.424 | 0.486
PC-14 | 0.697 | 0.573 | 0.554 | 0.533 | 0.413 | 0.628 | 0.46 | 0.544 | 0.473 | 0.314 | 0.873 | 0.917 | 0.777 | 0.822 | 0.307 | 0.35 | 0.3 | 0.325
RERF-LC-KJ | 0.532 | 0.469 | 0.527 | 0.487 | 0.461 | 0.442 | 0.44 | 0.423 | 0.463 | 0.446 | 1.18 | 1.22 | 1.19 | 0.963 | 0.911 | 0.9 | 0.872 | 0.759
SK-LU-1 | 0.395 | 0.369 | 0.342 | 0.349 | 0.34 | 0.61 | 0.545 | 0.39 | 0.514 | 0.517 | 1.07 | 0.954 | 1.32 | 1.05 | 1.06 | 0.856 | 0.835 | 0.855
SW 1573 | 0.175 | 0.198 | 0.137 | 0.212 | 0.174 | 0.426 | 0.44 | 0.331 | 0.446 | 0.348 | 1.16 | 1.17 | 1.1 | 1.29 | 1.16 | 0.97 | 0.928 | 1.07
